Results taken from patent US20230048349A1, “RECIRCULATING AQUACULTURE SYSTEM AND METHODS THEREOF” (THE TEXAS A&M UNIVERSITY SYSTEM, priority 2021, published 2023).

Assays:
[1] = test system: V. campbellii and A. hydrophila; test: Growth inhibition test of SCFAs and MCFAs, ranges over two G− pathogens (Example 15); type: cell-based, Vibrio campbellii; Aeromonas hydrophila; conditions: range over V. campbellii and A. hydrophila; for MIC: LB pH 6, 5-125 mM tested
Protocol: (§1) Growth Inhibition Tests: Antipathogenic Properties of SCFAs and MCFAs. Growth inhibition tests to measure optical density (OD600) and calculate % inhibition efficiencies, minimum, and median inhibitory concentrations (MIC and IC50) were conducted as described previously. […] The PHA intermediates (SCFAs and MCFAs) are water-soluble, representing the PHA degradation products in the gastrointestinal tract of aquatic animals, allowing to assess the antipathogenic efficacy of PHA under the best scenario. The culture tubes were incubated at 30° C. under 150 rpm. The growths of tested strains in the absence of PHA intermediates were used as controls.

S. agalactiae = test: Growth inhibition test of SCFAs and MCFAs (Example 15); type: cell-based, Streptococcus agalactiae
Protocol: as §1

[2] = test system: Vibrio-challenged Artemia; test: Artemia pathogen challenge test (Example 17); type: in vivo, Artemia franciscana; conditions: after three days; supplement 1 g/L; V. campbellii 10^8 cells/ml
Protocol: The pathogen challenge tests were designed to determine the effects of individual supplements on the survival of Vibrio-challenged Artemia. The pathogen challenge tests were conducted as described in the starvation tests, except that Artemia cultures (one day old) with each of the abovementioned supplements (1 g/L) were exposed to a lethal dose (10^8 cells/ml) of live V. campbellii as determined previously. In all treatments, 250 mg/L of yeast was added initially as a feed. Unchallenged and Vibrio-challenged Artemia were used as negative and positive controls, respectively. The survival of Artemia was monitored daily for three days.

## CCCCC(=O)O [valerate]
[1]; LB pH 6
  IC50: 0.84 to 11.1 mM
[1]
  MIC: 62.4 to 77.9 mM
S. agalactiae; S. agalactiae
  IC50: 30.2 mM
[2]
  survival of Vibrio-challenged Artemia: 10%

## CCCCCCCC(=O)O [octanoate]
[1]
  MIC: < 5 mM
S. agalactiae; stated for all pathogenic growth, incl. S. agalactiae
  MIC: < 5 mM
[2]
  survival of Vibrio-challenged Artemia: 80%
